molecular target: Corticotropin releasing factor receptor (Rattus norvegicus, UniProt P47866+P35353); assay: Binding affinity at Corticotropin releasing factor receptor of rat cortical homogenates.

| SMILES | Ki [nM] |
| --- | --- |
| CCc1nc2c(-c3ccc(OC)nc3C)ccnc2n1C(C)CC (stereo not drawn) | 9.2 |
| CCc1nc2c(-c3ccc(OC)cc3C)ccnc2n1C(CC)C1CC1 (stereo not drawn) | 0.5 |
| CCc1nc2c(-c3ccc(OC)nc3C)ccnc2n1C(C)C1CCC1 (stereo not drawn) | 2.1 |
| CCc1nc2c(-c3ccc(OC)nc3C)ncnc2n1C(C1CC1)C1CC1 | 1.8 |
| CCc1nc2c(-c3ccc(OC)cc3C)ncnc2n1C(C1CC1)C1CC1 | 1.9 |
| CCc1nc2c(-c3ccc(N(C)C)nc3C)ccnc2n1C(CC)C1CC1 (stereo not drawn) | 7.5 |
| CCc1nc2c(-c3ccc(Cl)nc3C)ccnc2n1C(CC)C1CC1 (stereo not drawn) | 3.3 |
| CCc1nc2c(-c3ccc(OC)nc3C)ccnc2n1C(C)C1CC1 (stereo not drawn) | 2 |

Second part, the compound after the results:

| Ki [nM] | SMILES |
| --- | --- |
| 0.7 | CCc1nc2c(-c3ccc(OC)nc3C(F)(F)F)ccnc2n1C(C)CC (stereo not drawn) |
| 10.1 | CCCC(C)n1c(CC)nc2c(-c3ccc(OCCO)nc3C(F)(F)F)ccnc21 (stereo not drawn) |
| 0.7 | CCc1nc2c(-c3ccc(OC)nc3C(F)(F)F)ccnc2n1C(CC)C1CC1 (stereo not drawn) |
| 17.1 | CCCC(C)n1c(CC)nc2c(-c3cnc(OC)cc3C)ccnc21 (stereo not drawn) |
| 6.6 | CCCC(C)n1c(CC)nc2c(-c3ccc(Cl)nc3C)ccnc21 (stereo not drawn) |
| 1.1 | CCCC(C)n1c(CC)nc2c(-c3ccc(OC)nc3C)ccnc21 (stereo not drawn) |
| 0.8 | CCc1nc2c(-c3ccc(OC)nc3C(F)(F)F)ccnc2n1C(C)C1CCC1 (stereo not drawn) |
| 1.6 | CCc1nc2c(-c3ccc(OC)nc3C(F)(F)F)ccnc2n1C(CC)CCOC (stereo not drawn) |
| > 10000 | CCCC(C)n1c(CC)nc2c(-c3ccc(O)nc3C)ccnc21 (stereo not drawn) |
| 602 | CCCC(C)n1c(CC)nc2c(-c3ccc(O)nc3C(F)(F)F)ccnc21 (stereo not drawn) |
